Laboratory results as given in ChEMBL document CHEMBL4507276 (2021).

Assays:
Details in all cases: Compound concentration 1000.0 nM
[1] = system: Tyrosine-protein kinase ABL1 (Homo sapiens), P00519 [H396P]
[2] = target: T1, Myotonin-protein kinase (Homo sapiens) (UniProt Q09013)
T1 sequence (whole entry): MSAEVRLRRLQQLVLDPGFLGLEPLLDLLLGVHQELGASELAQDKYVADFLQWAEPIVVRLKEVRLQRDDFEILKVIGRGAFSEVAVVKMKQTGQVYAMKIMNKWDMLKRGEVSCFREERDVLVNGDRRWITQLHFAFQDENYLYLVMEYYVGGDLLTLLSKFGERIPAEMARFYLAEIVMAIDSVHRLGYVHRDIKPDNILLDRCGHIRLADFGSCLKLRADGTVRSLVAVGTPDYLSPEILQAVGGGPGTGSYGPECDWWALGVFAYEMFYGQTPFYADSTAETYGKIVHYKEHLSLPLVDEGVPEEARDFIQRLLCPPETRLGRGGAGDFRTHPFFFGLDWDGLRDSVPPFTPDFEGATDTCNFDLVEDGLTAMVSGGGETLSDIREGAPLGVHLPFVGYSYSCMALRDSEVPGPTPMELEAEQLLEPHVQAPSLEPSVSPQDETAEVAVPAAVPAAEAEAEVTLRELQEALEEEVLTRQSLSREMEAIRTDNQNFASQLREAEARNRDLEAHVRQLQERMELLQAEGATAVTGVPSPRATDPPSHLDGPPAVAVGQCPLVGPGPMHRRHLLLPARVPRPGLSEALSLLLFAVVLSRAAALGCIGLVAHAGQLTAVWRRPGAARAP

[3] = target: Mitogen-activated protein kinase 15 (Homo sapiens) (UniProt Q8TD08)
Mitogen-activated protein kinase 15 (Homo sapiens), sequence (Q8TD08 whole entry): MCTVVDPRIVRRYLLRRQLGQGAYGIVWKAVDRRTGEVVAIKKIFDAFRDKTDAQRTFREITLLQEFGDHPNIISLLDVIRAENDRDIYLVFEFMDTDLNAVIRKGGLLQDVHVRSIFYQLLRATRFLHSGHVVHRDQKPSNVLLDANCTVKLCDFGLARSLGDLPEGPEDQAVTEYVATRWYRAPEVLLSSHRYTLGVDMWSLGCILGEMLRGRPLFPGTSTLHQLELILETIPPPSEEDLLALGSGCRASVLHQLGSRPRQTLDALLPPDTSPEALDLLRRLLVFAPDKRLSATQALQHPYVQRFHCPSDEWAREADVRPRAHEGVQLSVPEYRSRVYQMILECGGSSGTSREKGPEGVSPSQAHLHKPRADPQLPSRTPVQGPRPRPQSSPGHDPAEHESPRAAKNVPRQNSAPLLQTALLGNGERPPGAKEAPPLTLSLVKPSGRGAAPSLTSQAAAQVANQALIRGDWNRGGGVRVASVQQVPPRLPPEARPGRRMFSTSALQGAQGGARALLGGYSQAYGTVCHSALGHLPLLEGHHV

[4] = target: T2, Rhodopsin kinase GRK7 (Homo sapiens) (UniProt Q8WTQ7)
T2 sequence (whole entry): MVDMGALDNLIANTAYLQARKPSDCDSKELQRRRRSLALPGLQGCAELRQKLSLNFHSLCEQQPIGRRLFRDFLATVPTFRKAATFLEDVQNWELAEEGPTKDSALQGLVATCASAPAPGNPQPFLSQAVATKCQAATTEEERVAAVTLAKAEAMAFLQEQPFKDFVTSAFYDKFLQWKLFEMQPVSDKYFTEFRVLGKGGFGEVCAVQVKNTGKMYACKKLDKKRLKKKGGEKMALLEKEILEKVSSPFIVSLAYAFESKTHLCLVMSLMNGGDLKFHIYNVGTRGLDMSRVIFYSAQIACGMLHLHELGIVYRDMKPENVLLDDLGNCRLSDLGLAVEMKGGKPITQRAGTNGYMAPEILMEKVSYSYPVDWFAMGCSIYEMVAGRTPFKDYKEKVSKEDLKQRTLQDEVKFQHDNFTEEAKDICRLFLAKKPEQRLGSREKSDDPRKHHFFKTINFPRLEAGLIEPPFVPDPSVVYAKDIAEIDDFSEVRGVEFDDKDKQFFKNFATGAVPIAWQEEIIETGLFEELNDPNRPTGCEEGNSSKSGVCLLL

[5] = target: T3, Inhibitor of nuclear factor kappa-B kinase subunit beta (Homo sapiens) (UniProt O14920)
T3 sequence (whole entry): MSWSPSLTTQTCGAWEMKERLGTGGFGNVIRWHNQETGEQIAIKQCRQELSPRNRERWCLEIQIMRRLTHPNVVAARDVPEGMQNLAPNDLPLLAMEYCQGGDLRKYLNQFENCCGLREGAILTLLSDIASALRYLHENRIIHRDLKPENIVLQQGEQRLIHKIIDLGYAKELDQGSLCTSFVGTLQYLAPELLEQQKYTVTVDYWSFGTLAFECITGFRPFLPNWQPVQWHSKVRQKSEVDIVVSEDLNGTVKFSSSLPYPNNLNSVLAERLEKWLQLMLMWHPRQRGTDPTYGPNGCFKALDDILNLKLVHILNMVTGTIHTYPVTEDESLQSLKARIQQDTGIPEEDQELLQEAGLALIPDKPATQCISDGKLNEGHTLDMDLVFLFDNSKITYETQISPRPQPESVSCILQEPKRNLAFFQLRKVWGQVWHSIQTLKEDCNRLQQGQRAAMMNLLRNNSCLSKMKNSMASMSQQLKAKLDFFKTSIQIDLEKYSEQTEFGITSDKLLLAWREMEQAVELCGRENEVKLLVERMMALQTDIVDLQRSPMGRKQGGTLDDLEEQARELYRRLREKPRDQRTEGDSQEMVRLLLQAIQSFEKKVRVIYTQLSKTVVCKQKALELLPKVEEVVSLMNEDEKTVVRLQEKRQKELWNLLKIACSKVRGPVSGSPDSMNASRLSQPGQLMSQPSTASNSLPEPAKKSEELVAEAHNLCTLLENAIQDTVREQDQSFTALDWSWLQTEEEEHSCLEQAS

[6] = target: Tyrosine-protein kinase JAK1 (Homo sapiens) (UniProt P23458)
Tyrosine-protein kinase JAK1 (Homo sapiens), sequence (P23458 whole entry): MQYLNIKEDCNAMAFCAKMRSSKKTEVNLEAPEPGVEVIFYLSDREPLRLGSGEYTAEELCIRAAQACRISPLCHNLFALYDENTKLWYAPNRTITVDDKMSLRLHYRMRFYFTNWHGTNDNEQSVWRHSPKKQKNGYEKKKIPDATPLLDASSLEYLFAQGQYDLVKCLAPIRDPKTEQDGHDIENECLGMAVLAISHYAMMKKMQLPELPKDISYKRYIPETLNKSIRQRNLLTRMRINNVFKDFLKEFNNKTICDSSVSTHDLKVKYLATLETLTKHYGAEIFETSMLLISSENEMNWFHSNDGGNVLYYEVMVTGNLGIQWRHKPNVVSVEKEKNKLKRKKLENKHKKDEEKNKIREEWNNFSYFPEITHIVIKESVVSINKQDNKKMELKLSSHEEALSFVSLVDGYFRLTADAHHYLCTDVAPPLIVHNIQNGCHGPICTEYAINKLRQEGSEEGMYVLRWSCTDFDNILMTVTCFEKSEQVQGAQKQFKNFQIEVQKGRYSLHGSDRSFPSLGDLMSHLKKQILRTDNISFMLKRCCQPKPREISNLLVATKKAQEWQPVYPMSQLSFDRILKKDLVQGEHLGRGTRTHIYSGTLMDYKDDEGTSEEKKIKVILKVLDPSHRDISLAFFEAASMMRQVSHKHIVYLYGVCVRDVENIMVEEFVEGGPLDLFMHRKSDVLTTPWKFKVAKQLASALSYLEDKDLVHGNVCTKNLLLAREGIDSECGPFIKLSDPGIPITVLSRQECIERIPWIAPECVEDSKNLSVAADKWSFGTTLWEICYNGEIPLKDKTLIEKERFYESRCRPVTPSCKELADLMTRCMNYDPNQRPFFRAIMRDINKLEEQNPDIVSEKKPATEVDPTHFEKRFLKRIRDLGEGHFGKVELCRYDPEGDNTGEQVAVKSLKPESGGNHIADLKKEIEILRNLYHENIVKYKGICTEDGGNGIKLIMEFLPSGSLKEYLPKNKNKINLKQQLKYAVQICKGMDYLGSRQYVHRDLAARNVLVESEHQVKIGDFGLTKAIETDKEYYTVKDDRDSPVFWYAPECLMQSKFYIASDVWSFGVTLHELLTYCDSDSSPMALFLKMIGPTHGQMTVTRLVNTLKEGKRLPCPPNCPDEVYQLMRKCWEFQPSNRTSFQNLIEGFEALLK

[7] = target: Serine/threonine-protein kinase Nek5 (Homo sapiens) (UniProt Q6P3R8)
Serine/threonine-protein kinase Nek5 (Homo sapiens), sequence (Q6P3R8 whole entry): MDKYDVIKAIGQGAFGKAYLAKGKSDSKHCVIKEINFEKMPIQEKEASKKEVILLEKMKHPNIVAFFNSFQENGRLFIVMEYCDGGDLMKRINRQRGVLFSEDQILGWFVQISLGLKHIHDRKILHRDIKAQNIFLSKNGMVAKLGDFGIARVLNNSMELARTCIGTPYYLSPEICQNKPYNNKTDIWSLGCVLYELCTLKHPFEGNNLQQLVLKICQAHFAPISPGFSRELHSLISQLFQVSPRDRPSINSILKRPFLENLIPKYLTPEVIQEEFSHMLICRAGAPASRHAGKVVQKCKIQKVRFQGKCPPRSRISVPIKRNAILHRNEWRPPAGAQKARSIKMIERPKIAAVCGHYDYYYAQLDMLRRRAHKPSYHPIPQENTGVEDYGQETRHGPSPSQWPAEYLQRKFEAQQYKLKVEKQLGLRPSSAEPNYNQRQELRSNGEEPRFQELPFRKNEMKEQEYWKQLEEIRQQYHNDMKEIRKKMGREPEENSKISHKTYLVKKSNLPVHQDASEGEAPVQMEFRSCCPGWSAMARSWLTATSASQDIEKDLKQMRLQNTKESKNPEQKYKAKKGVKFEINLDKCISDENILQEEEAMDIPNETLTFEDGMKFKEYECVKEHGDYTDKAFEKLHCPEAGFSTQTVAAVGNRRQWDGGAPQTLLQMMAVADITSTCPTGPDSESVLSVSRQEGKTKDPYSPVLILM

[8] = target: T4, Mitogen-activated protein kinase 12 (Homo sapiens) (UniProt P53778)
T4 sequence (whole entry): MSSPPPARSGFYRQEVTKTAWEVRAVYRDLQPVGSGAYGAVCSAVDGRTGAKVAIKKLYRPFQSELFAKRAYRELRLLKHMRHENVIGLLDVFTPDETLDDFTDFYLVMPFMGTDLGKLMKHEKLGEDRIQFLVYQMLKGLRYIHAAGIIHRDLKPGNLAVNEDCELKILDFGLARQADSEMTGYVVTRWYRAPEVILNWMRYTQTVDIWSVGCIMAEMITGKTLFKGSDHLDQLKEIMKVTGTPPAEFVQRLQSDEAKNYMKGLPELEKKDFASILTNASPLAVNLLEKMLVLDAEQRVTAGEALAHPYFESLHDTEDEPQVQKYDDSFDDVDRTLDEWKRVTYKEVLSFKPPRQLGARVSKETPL

[9] = target: Dual serine/threonine and tyrosine protein kinase (Homo sapiens) (UniProt Q6XUX3)
Dual serine/threonine and tyrosine protein kinase (Homo sapiens), sequence (Q6XUX3 whole entry): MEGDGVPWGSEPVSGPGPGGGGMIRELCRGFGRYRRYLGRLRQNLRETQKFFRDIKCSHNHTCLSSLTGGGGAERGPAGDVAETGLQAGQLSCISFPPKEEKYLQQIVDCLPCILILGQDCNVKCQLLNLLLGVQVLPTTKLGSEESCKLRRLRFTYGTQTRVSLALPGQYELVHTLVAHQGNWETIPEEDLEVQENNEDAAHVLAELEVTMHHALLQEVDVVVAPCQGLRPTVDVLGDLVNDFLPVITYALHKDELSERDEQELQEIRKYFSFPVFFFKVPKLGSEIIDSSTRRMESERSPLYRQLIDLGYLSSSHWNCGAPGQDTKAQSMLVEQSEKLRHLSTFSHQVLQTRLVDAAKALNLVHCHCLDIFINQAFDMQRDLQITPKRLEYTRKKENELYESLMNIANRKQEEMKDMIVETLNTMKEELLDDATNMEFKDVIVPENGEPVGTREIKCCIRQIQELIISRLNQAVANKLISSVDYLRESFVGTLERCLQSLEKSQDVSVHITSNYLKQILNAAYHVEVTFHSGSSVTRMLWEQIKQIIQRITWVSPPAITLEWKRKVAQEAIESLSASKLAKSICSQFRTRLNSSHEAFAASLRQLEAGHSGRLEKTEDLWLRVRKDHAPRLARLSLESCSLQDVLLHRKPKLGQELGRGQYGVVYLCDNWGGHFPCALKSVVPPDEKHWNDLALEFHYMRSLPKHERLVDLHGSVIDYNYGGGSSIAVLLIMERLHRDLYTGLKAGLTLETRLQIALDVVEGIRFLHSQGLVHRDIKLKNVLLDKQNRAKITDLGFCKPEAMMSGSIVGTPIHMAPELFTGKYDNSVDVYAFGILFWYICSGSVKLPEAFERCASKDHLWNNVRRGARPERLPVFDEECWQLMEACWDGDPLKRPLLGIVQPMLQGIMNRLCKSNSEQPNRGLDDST

[10] = target: High affinity nerve growth factor receptor (Homo sapiens) (UniProt P04629)
High affinity nerve growth factor receptor (Homo sapiens), sequence (P04629 33-796 limits assumed): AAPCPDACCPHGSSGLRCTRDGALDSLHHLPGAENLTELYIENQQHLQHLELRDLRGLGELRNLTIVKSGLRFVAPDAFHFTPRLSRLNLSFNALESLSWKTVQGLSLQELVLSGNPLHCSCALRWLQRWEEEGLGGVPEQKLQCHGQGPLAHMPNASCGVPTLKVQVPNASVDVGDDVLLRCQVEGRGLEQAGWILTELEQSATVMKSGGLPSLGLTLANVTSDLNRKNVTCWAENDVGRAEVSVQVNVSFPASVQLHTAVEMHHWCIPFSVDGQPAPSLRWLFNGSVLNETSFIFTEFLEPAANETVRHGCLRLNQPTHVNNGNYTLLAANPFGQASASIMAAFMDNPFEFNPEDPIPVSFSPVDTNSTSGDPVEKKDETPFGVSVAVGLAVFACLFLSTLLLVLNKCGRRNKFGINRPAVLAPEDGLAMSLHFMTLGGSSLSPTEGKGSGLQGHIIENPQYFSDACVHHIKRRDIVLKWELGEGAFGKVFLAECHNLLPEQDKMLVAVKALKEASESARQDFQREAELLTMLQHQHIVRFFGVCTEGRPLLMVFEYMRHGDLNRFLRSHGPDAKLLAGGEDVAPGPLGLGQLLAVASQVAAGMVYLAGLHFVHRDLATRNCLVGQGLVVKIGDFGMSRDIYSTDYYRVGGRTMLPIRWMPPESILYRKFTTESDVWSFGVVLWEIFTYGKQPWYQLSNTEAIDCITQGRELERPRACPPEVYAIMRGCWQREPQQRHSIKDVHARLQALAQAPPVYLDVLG

Row | SMILES | residual activity [1] [%] | residual activity [2] [%] | residual activity [3] [%] | residual activity [4] [%] | residual activity [5] [%] | residual activity [6] [%] | residual activity [7] [%] | residual activity [8] [%] | residual activity [9] [%] | residual activity [10] [%]
1 | CN(C)C(=O)Cn1cc(-c2nc(C3(c4ccc(-c5cnc(N)nc5)cc4)CC3)no2)cn1 [BI 0153] | 100 | 82 | 96 | 84 | 90 | 76 | 89 | 62 | 94 | 100
2 | CN(C)C(=O)Cn1cc(-c2nc([C@@](C)(c3ccc(-c4cnc(N)nc4)cc3)C3CC3)no2)cn1 [BI 665915] | 76 | 100 | 91 | 0 | 100 | 100 | 89 | 94 | 57 | 70
